# From patent US20150164916A1, “ROFLUMILAST COMPOSITIONS FOR THE TREATMENT OF COPD” (Forest Laboratories Holdings Ltd., priority 2012, published 2015)
# How the values were obtained:
# Assay type in all cases: cell-based, human
# MMP-9 release = experiment: LPS- or CSE-induced MMP-9 release in isolated peripheral blood neutrophils (LUMINEX); settings: 6 h
# Protocol: (§1) Neutrophils and monocytes were isolated from peripheral venous blood by standard laboratory procedures. In brief, peripheral venous blood was mixed with dextran 500 at 3% (in 0.9% saline) in a proportion of 2:1. This mixture was incubated at room temperature for 30 min until erythrocytes were sedimented. The upper phase was carefully collected and added on Ficoll-Paque Histopaque 1077 (Amershan Pharmacia Biotech, Barcelona, Spain) density gradient in a proportion of 3:1. The two phases generated were centrifuged at 150 g, 4° C. for 30 min. Thus, the interface was collected to isolate monocytes, and the pellet obtained (which is consisted a mixture of neutrophils and low proportion of residual erythrocytes and traces of eosinophils and basophils) was resuspended in an erythrocyte lysis buffer (Biolegend, UK) for 5 min in ice. Cell suspension was washed two times with phosphate buffer (PBS).
# CSE was prepared as previously outlined (Milara et al.; Ortiz et al.). Briefly, the smoke of a research cigarette (2R4F; Tobacco Health Research, University of Kentucky, KY, USA) was generated by a respiratory pump (Apparatus Rodent Respirator 680; Harvard, Germany) through a puffing mechanism related to the human smoking pattern (3 puff/min; 1 puff 35 ml; each puff of 2 s duration with 0.5 cm above the filter) and was bubbled into a flask containing 25 ml of pre-warmed (37° C.) RPMI 1640 culture medium supplemented as describe above. The CSE solution was sterilized by filtration through a 0.22-μm cellulose acetate sterilizing system (Corning, N.Y.). The resultant CSE solution was considered to be 100% CSE and was used for experiments within 30 min of preparation. CSE 10% corresponds approximately to the exposure associated with smoking two packs per day (Su et al., 1998). The quality of the prepared CSE solution was assessed based on the absorbance at 320 nm, which is the specific absorption wavelength of peroxynitrite. Stock solutions with an absorbance value of 3.0±0.1 were used. To test for cytotoxicity from CSE, isolated neutrophils and monocytes were treated with CSE concentrations of up to 5% for 24.
# (§2) Peripheral neutrophil cell suspension was adjusted to 500×10^3 cells per well in 24-well plates and incubated in RPMI culture medium for 1 h into the incubator at 37° C., 5% CO2. […] Both the stimulus and drug were remained together for 6 h. Supernatants were collected and centrifuged at 120 g for 5 min, and the free-cell supernatant was used to measure IL-8, MMP-9, IL-1β, GM-CSF and CCL-5.
# (§3) IL-8 was determined by using commercially available enzyme-linked immunosorbent assay kit for IL-8 (R&D Systems, UK) according to the manufacturer's protocol. MMP-9, IL-1β, GM-CSF and CCL-5 were measured by LUMINEX technology according to the manufacturer's protocol.
# (§4) Data were presented as mean±SEM. IC50 values were calculated for each drug and their combinations. Statistical analysis of results was carried out by analysis of variance (ANOVA) followed by Bonferroni test, by Student's t test, or by non-parametric tests as appropriate (GraphPad Software Inc, San Diego, Calif., USA). Significance was accepted when P<0.05. For clinical correlations of lung function and gene expression from neutrophils the non-parametric Spearman correlation analysis was carried out.
# IL-1β release = experiment: LPS-induced IL-1β release in isolated peripheral blood neutrophils (LUMINEX); settings: LPS (1 μg/ml), 6 h
# Protocol: as §1, §2, §3, §4
# HDAC2 = experiment: Real time RT-PCR of HDAC2 expression in CSE-stimulated neutrophils from COPD patients; settings: RNO 1 nM and 1 μM, DEX 1 μM, RNO 1 nM plus DEX 1 μM, NAC 1 mM, CSE 5%
# Protocol: Neutrophils and monocytes were isolated from peripheral venous blood by standard laboratory procedures. In brief, peripheral venous blood was mixed with dextran 500 at 3% (in 0.9% saline) in a proportion of 2:1. This mixture was incubated at room temperature for 30 min until erythrocytes were sedimented. The upper phase was carefully collected and added on Ficoll-Paque Histopaque 1077 (Amershan Pharmacia Biotech, Barcelona, Spain) density gradient in a proportion of 3:1. The two phases generated were centrifuged at 150 g, 4° C. for 30 min. […]
# CSE was prepared as previously outlined (Milara et al.; Ortiz et al.). […] The quality of the prepared CSE solution was assessed based on the absorbance at 320 nm, which is the specific absorption wavelength of peroxynitrite. Stock solutions with an absorbance value of 3.0±0.1 were used. […]
# Total RNA was obtained from isolated neutrophils under basal conditions or after different drug and stimulation periods defined above by using TriPure® Isolation Reagent (Roche, Indianapolis, USA). […] Relative quantification of these transcripts was determined with the 2^−ΔΔCt method using glyceraldehyde phosphate dehydrogenase (GAPDH) as endogenous control (Applied Biosystems; 4352339E) and normalized to control group as previously described (Milara et al., 2009).
# Then, mRNA was isolated and quantified for different genes.
# intracellular ROS = experiment: Intracellular reactive oxygen species (ROS) by flow cytometry in whole blood neutrophils from COPD patients; settings: fMLP 1 μM or CSE 5%, 1 h, NAC 1 mM
# Protocol: Intracellular reactive oxygen species (ROS) were measured by a flow cytometry assay using 2′,7′-dichlorodihydrofluorescein diacetate (H2DCF-DA, Molecular Probes, UK) as previously outlined (Milara et al., 2010). H2DCF-DA was added for 15 min before stimulus to a final concentration of 5 μM to measure intracellular ROS. The bacterial peptide fMLP was added as stimulus at 1 μM […] to generate intracellular ROS (Elbim et al., 2001). In other experiments, to reproduce in vivo conditions, CSE 5% was added to generate intracellular ROS. Intracellular ROS was measured using fresh whole blood from COPD patients. Blood neutrophils were selected using CD16-Alexa Fluor 647 antibody (molecular probes, UK) as neutrophil marker, and CD14-PerCEP-Cy5.5 mouse antihuman (molecular probes, UK) as monocyte marker in an Epics Profile II flow cytometer. A total of 1 ml of whole blood was pre-incubated at 37° C. for 30 min with RNO ([…] (1 mM) and H2DCF-DA followed by fMLP 1 μM or CSE 5% stimulation for another 1 h. Then erythrocytes were lysed using a commercial erythrocyte lysis buffer (Biolegend, UK) for 10 min. Fluorescence intensity was measured in the polymorphonuclear region of whole blood in an Epics Profile II flow cytometer. Results were expressed as DCF fluorescence in relative fluorescence units (RFU).
# To this end, whole blood was stimulated with the bacterial peptide fMLP 1 μM or with CSE 5% in presence or absence of RNO or NAC for 1 h.
# [1] = CSE 5%, neutrophils from COPD patients
# [2] = CSE 5%, neutrophils from HEALTHY
# [3] = LPS (1 μg/ml), neutrophils from COPD patients
# [4] = LPS (1 μg/ml), neutrophils from HEALTHY
smiles,measurement,setting,value
"O=C(Nc1c(Cl)c[n+]([O-])cc1Cl)c1ccc(OC(F)F)c(OCC2CC2)c1 [RNO, roflumilast N-oxide]","-log IC50, inhibition of MMP-9 release",MMP-9 release; [1],8.76 ± 0.11
same,Maximal % Inhibition of MMP-9 release,MMP-9 release; [1],62.58 ± 2.28%
same,"-log IC50, inhibition of MMP-9 release",MMP-9 release; [2],8.87 ± 5.6
same,Maximal % Inhibition of MMP-9 release,MMP-9 release; [2],64.8 ± 5.64%
same,"-log IC50, inhibition of MMP-9 release",MMP-9 release; [3],7.64 ± 0.23
same,Maximal % Inhibition of MMP-9 release,MMP-9 release; [3],94.61 ± 11.82%
same,"-log IC50, inhibition of MMP-9 release",MMP-9 release; [4],7.66 ± 0.22
same,Maximal % Inhibition of MMP-9 release,MMP-9 release; [4],98.9 ± 12.6%
same,"-log IC50, inhibition of IL-1β release",IL-1β release; neutrophils from COPD patients,7.82 ± 0.21
same,Maximal % Inhibition of IL-1β release,IL-1β release; neutrophils from COPD patients,66.69 ± 6.86%
same,"-log IC50, inhibition of IL-1β release",IL-1β release; neutrophils from HEALTHY,7.73 ± 0.22
same,Maximal % Inhibition of IL-1β release,IL-1β release; neutrophils from HEALTHY,67.08 ± 6.63%
same,effect on CSE-induced HDAC2 downregulation,HDAC2,inhibited
same,effect on ROS generation in neutrophils,intracellular ROS,dose-dependently inhibited
same,effect on ROS generation in neutrophils,intracellular ROS; listed as Roflumilast N-oxide,inhibits
